Assay results as given in patent US4563477A, “Process for the preparation of alpha-(N-pyrrolyl)-derivative acids, the salts and esters thereof; alpha-(N-pyrrolyl)-phenylacetic acids, the esters thereof, pharmaceutical compositions containing them and therapeutical applications thereof” (Antibioticos, S.A., priority 1982, dated 1986).

Legend:
[1] = system: 0.5% acetic acid induced contorsions in NMRI mice; assay: Peripheral analgesic activity: 0.5% acetic acid induced contorsions in NMRI mice; format: in vivo; conditions: male NMRI mice, n = 10, 100 mg/kg p.o.; for % inhibition relative to control (contorsions) / No mice with contorsions: 0.5% acetic acid i.p.; for No contorsions (X ± s.e.): 0.5% acetic acid i.p. after 30 minutes, observed half an hour, mean ± s.e., control 27.1 ± 4.3, Duncan Kramer test p < 0.05; for No mice with contorsions: control 10/10
Experimental: The experimental method consists of injecting an irritant, such as acetic acid, into the […] peritoneum and provoking obviously appreciable painful contorsions such as stretching of the rear paws and twisting of the dorso-abdominal muscles.
The material used consisted of lots of NMRI mice bred in our SPF breeding centre under constant temperature and humidity conditions of 23°±0.5° C. and 70±5%.
Standard: acetylsalicylic acid
Vehicle: propylene glycol/water--40/60 v.
Transparent plastic cages.
With this material the mice were randomly distributed into groups of 10 animals. The test order and the treatment to be given to each group was also randomised. […]
The control lot received the vehicle. As standard, acetylsalicylic acid at a dose level of 100 mg/kg, suspended in the same vehicle and administered p.o., was used.
After 30 minutes, 0.25 ml per 20 g body weight of a 0.5% acetic acid solution was administered intraperitoneally.
The number of painful contorsions were counted and, for evaluating the results, the means of the number of stretches of each lot were calculated and were expressed as inhibition percentages relative to the control, as per the following equation: [formula] where c is the mean of the number of stretches of the control group and b is the mean of the number of stretches of the treated group.
The statistical significance between the lots may be ascertained with the Duncan-Kramer test, with p<0.05.
0.5% acetic acid induced contorsions in NMRI mice male (n = 10)

[2] = system: ADP induced platelet aggregation; assay: "Ex vivo" platelet anti-aggregation activity in rats (ADP induced platelet aggregation, Born aggregometer); parameters: species or system Wistar rats, ITA 177 SPF; conditions: 100 mg/kg p.o., n = 5, blood drawn 5 hours after administration; for Platelet aggregation %: control 86.4 ± 2.15, Duncan Kramer test p < 0.05; for Platelet aggregation, % inhibition: relative to control
Experimental: Acetylsalicyclic acid at a dose level of 100 mg/kg p.o. was used as standard.
The products to be tested were administered at the maximum dose of 200 mg/kg, p.o.
Both the standard and the products were administered dissolved or suspended in a 10 ml/kg Tween solution.
The animals were fasted during the test and for 17 hours prior thereto, but had water "ad libitum".
The % aggregation was calculated measuring the difference in mm in the recorder between the initial aggregation stage and the height of the specimen curve 6 minutes after the onset of aggregation.
This figure, therefore, is calculated as a percentage, taking as 100% the figure in mm of the difference between the platelet rich plasma (prp) and the platelet poor plasma (ppp) obtained in balancing the apparatus for the specimen under examination.
"Ex vivo" platelet anti-aggregation activity in rats

| SMILES | % inhibition relative to control (contorsions) [1] | No contorsions (X ± s.e.) [1] | No mice with contorsions [1] | Platelet aggregation % [2] | Platelet aggregation, % inhibition [2] |
| --- | --- | --- | --- | --- | --- |
| O=C(O)C(c1ccccc1)n1cccc1 (racemic) [DL(±)-alpha-(N-pyrrolyl)-phenylacetic acid] | 79.7% | 5.5 ± 1.8 | 7/10 | 25.3 ± 9.28% | 70.7% |
| O=C(O)C(c1ccc(O)cc1)n1cccc1 (racemic) [Dibenzylammonium DL(±)-alpha-(N-pyrrolyl)-p-hydroxy-phenylacetate] | 72.3% | 7.5 ± 2.2 | 9/10 | – | – |
| CCOC(=O)C(c1ccccc1)n1cccc1 (racemic) [Ethyl DL(±)-alpha-(N-pyrrolyl)-phenylacetate] | – | – | – | 42.0 ± 2.58% | 51.4% |
| CC(=O)Oc1ccccc1C(=O)O [Acetylsalicylic acid, reference compound] | 37.27% | 17 ± 3.5 | 10/10 | 20.1 ± 1.49% | 76.7% |
| O=C(O)Cn1cccc1 [Alpha-(N-pyrrolyl)-acetic acid] | – | – | – | 63.1 ± 3.32% | 27.0% |
| O=C(O)[C@@H](c1ccccc1)n1cccc1 [D(+)-alpha-(N-pyrrolyl)-phenylacetic acid] | 70.9% | 7.9 ± 2.6 | 8/10 | – | – |
| O=C(O)[C@H](c1ccccc1)n1cccc1 [L(-)-alpha-(N-pyrrolyl)-phenylacetic acid] | 76.2% | 6.4 ± 1.9 | 8/10 | – | – |
| CCCCC1C(=O)N(c2ccccc2)N(c2ccccc2)C1=O [Phenylbutazone, reference compound] | – | – | – | 58.2 ± 7.35% | 32.6% |
